From patent US8703120B2, “Use of oncolytic herpes viruses for killing cancer stem cells” (The General Hospital Corporation, priority 2008, dated 2014)

Tests used:
Format in all cases: cell-based
GBM13 glioma stem cells = assay: MTS cell viability assay with Chou-Talalay analysis; details: Homo sapiens, 96 h, MTS 4 days later
Description: (§1) TMZ was applied first, with or without O6-Benzylguanine (O6-BG:40 or 80 μM), followed by G47Δ 12 hours later. MTS assay was performed to measure cell viability 4 days later.

BT74 glioma stem cells = assay: as above; details: Homo sapiens, 96 h, MTS 4 days later
Description: BT74 glioma stem cells were seeded to 96-well plates at 5000 cells per well. […] TMZ was applied first, with or without O6-Benzylguanine (O6-BG:80 μM), followed by G47Δ 12 hours later. MTS assay was performed to measure cell viability 4 days later.
as §1

U87 = assay: MTT cell viability assay with Chou-Talalay analysis; details: Homo sapiens, U-87 MG, 96 h, MTT 4 days later
Description: (§2) FIG. 9A depicts that temozolomide (TMZ) synergizes with oncolytic Herpes vector G47Δ in MGMT-negative glioma cell lines U87 and U373. U87 or U373 cells were seeded to 96-well plates at 3000 cells per well. The next day, 1:3 serial dilution series of Temozolomide (TMZ) (EC50 200 μM), and G47Δ (EC50 MOI=0.06) were prepared. TMZ was applied first followed by G47Δ 12 hours later. MTT assay was performed to measure cell viability 4 days later.

U373 = assay: as above; details: Homo sapiens, U373 MG, 96 h, MTT 4 days later
Description: as §2

GBM8 glioma stem cells = assay: MTS cell viability / cell killing assay with Chou-Talalay analysis; details: Homo sapiens, 96 h, MTS 4 days later
Description: (§3) FIG. 10A depicts TMZ synergy with G47delta in MGMT-negative glioma stem cells (GBM4 and GBM8). GBM4 or GBM8 glioma stem cells were seeded to 96-well plates at 5000 cells per well. […] TMZ was applied first followed by G47Δ 12 hours later. MTS assay was performed to measure cell viability 4 days later.

GBM4 glioma stem cells = assay: as above; details: Homo sapiens, 96 h, MTS 4 days later
Description: as §3

`Cn1nnc2c(C(N)=O)ncn2c1=O` [TMZ, temozolomide] gave an EC50 (GBM13 glioma stem cells) of 1500 µM, an EC50 (BT74 glioma stem cells) of 1500 µM and an EC50 (U87) of 200 µM. The EC50 (U373) was 200 µM, the EC50 (GBM8 glioma stem cells) was 3 µM and the EC50 (GBM4 glioma stem cells) was 20 µM.
